Data reported in patent publication US20170150719A1, “FUNGICIDAL PYRAZOLES AND THEIR MIXTURES” (E I DU PONT DE NEMOURS AND COMPANY, priority 2010, published 2017).
Marks after values point to notes of the source that are not given here.

What was measured:
Septoria tritici = test: Test F: wheat leaf blotch, preventive spray on wheat seedlings, visual disease rating; type: in vivo; set-up: pest or weed control: dose or concentration left out as unconfirmed; settings: for Test F rating (% disease control) / Test F rating (% disease control), marked * / pest or weed control: preventive spray; for Test F rating (% disease control): rating without asterisk; for Test F rating (% disease control), marked * / pest or weed control: rating marked with asterisk (*), other test suspension concentration than unmarked ratings
From the text: A hyphen (-) indicates no test results.

[1] = system: Puccinia recondita f. sp. tritici; test: Test H: wheat leaf rust, preventive spray on wheat seedlings, visual disease rating; settings: for Test H rating (% disease control) / Test H rating (% disease control), marked *: wheat leaf rust, preventive spray; for Test H rating (% disease control): rating without asterisk; for Test H rating (% disease control), marked * / pest or weed control at 40 µg/mL: rating marked with asterisk (*), other test suspension concentration than unmarked ratings; for pest or weed control at 40 µg/mL: read-out: Test H rating (% disease control), marked *, wheat leaf rust, preventive spray
Botrytis cinerea = test: Test A: tomato Botrytis, preventive spray on tomato seedlings, visual disease rating; settings: for Test A rating (% disease control) / Test A rating (% disease control), marked *: tomato Botrytis, preventive spray; for Test A rating (% disease control): 0 = no control relative to controls, rating without asterisk; for Test A rating (% disease control), marked * / pest or weed control at 40 µg/mL: rating marked with asterisk (*), other test suspension concentration than unmarked ratings; for pest or weed control at 40 µg/mL: read-out: Test A rating (% disease control), marked *, tomato Botrytis, preventive spray
[2] = system: Blumeria graminis f. sp. tritici; test: Test I: wheat powdery mildew, preventive spray on wheat seedlings, visual disease rating; settings: for Test I rating (% disease control) / Test I rating (% disease control), marked *: wheat powdery mildew, preventive spray; for Test I rating (% disease control): rating without asterisk; for Test I rating (% disease control), marked * / pest or weed control at 40 µg/mL: rating marked with asterisk (*), other test suspension concentration than unmarked ratings; for pest or weed control at 40 µg/mL: read-out: Test I rating (% disease control), marked *, wheat powdery mildew, preventive spray
Description: General protocol for preparing test suspensions for Tests A-I: the test compounds were first dissolved in acetone in an amount equal to 3% of the final volume and then suspended at the desired concentration (in ppm) in acetone and purified water (50/50 mix by volume) containing 250 ppm of the surfactant Trem® 014 (polyhydric alcohol esters). The resulting test suspensions were then used in Tests A-I. Each test was conducted in triplicate, and the results were averaged. Spraying a 200 ppm test suspension to the point of run-off on the test plants was the equivalent of a rate of about 800 g/ha. Unless otherwise indicated, the rating values indicate a 200 ppm test suspension was used. (An asterisk “*” next to the rating value indicates a 40 ppm test suspension was used.)
The test suspension was sprayed to the point of run-off on wheat seedlings. The following day the seedlings were inoculated with a spore dust of Blumeria graminis f. sp. tritici (also known as Erysiphe graminis f. sp. tritici, the causal agent of wheat powdery mildew) and incubated in a growth chamber at 20° C. for 8 days, after which time visual disease ratings were made.

[3] = Botrytis cinerea, in Solanum lycopersicum
[4] = Blumeria graminis, in Triticum aestivum

Compound | Test F rating (% disease control) (Septoria tritici; 100 = 100% disease control) [%] | Test H rating (% disease control) ([1]; 100 = 100% disease control) [%] | Test A rating (% disease control) (Botrytis cinerea; 100 = 100% disease control) [%] | Test I rating (% disease control) ([2]; 100 = 100% disease control) [%] | other results
Cc1nn(C)c(Nc2c(Cl)cc(F)cc2Cl)c1-c1ccc(C#N)cc1F [compound 249] | 100 | 98 | 100 | 92 | 
Cc1nn(C)c(Nc2c(Cl)cccc2Cl)c1-c1ccc(F)cc1Br [compound 256] |  |  |  |  | Test F rating (% disease control), marked * (Septoria tritici): 100* %; Test H rating (% disease control), marked * [1]: 95* %; Test A rating (% disease control), marked * (Botrytis cinerea): 99* %; Test I rating (% disease control), marked * [2]: 64* %
Cc1nn(C)c(Nc2c(Cl)cccc2Cl)c1-c1ccc(F)cc1F [compound 251] | 100 | 100 | 100 | 100 | 
Cc1nn(C)c(Nc2c(F)cc(Cl)cc2Cl)c1-c1ccc(Br)cc1F [compound 237] | 100 | 92 | 99 | 95 | 
Cc1nn(C)c(Nc2c(F)cc(Cl)cc2F)c1-c1ccc(C#N)cc1F [Compound 150, 4-[5-[(4-chloro-2,6-difluorophenyl)amino]-1,3-dimethyl-1H-pyrazol-4-yl]-3-fluorobenzonitrile] |  |  |  |  | pest or weed control at 200 µg/mL (Septoria tritici; Zymoseptoria tritici, 100 = 100% disease control, 0 = no disease control relative to the controls): 100%; pest or weed control at 200 µg/mL ([1]; read-out: Test H rating (disease control), wheat leaf rust, sprayed the day before inoculation, 100 = 100% disease control, 0 = no disease control): 100%; pest or weed control at 200 µg/mL (Botrytis cinerea; Botrytis cinerea, in Solanum lycopersicum, read-out: Test A rating (disease control), tomato Botrytis, 100 = 100% disease control, 0 = no disease control relative to the controls): 100%; pest or weed control at 200 µg/mL ([2]; Blumeria graminis, in Triticum aestivum, read-out: Test I rating (disease control), wheat powdery mildew, 100 = 100% disease control, 0 = no disease control relative to the controls): 100%
Cc1nn(C)c(Nc2c(Cl)cccc2Cl)c1-c1ccc(F)cc1Cl [compound 255] |  |  |  |  | Test F rating (% disease control), marked * (Septoria tritici): 100* %; Test H rating (% disease control), marked * [1]: 99* %; Test A rating (% disease control), marked * (Botrytis cinerea): 100* %; Test I rating (% disease control), marked * [2]: 81* %
Cc1nn(C)c(Nc2ccccc2I)c1-c1ccc(F)cc1Br [compound 243] | 100 | 99 | 100 | 100 | 
Cc1nn(C)c(Nc2ccccc2Br)c1-c1ccc(F)cc1Br [compound 242] |  |  |  |  | Test F rating (% disease control), marked * (Septoria tritici): 100* %; Test H rating (% disease control), marked * [1]: 96* %; Test A rating (% disease control), marked * (Botrytis cinerea): 99* %; Test I rating (% disease control), marked * [2]: 99* %
Cc1nn(C)c(Nc2c(F)cc(F)cc2C#N)c1-c1ccc(C#N)cc1F [compound 250] | 100 | 100 | 0 | 89 | 
Cc1cccc(C)c1Nc1c(-c2ccc(F)cc2F)c(C)nn1C [Compound 270, 4-(2,4-difluorophenyl)-N-(2,6-dimethylphenyl)-1,3-dimethyl-1H-pyrazol-5-amine] |  |  |  |  | pest or weed control (Septoria tritici; Zymoseptoria tritici): 100%; pest or weed control at 40 µg/mL [1]: 41%; pest or weed control at 40 µg/mL (Botrytis cinerea; [3]): 98%; pest or weed control at 40 µg/mL [2, 4]: 91%
Cc1nn(C)c(Nc2ccc(F)cc2Cl)c1-c1ccc(Br)cc1F [compound 232] | 100 | 90 | 79 | 99 | 
Cc1cccc(C)c1Nc1c(-c2ccc(F)cc2Cl)c(C)nn1C [Compound 271, 4-(2-chloro-4-fluorophenyl)-N-(2,6-dimethylphenyl)-1,3-dimethyl-1H-pyrazol-5-amine] |  |  |  |  | pest or weed control (Septoria tritici; Zymoseptoria tritici): 100%; pest or weed control at 40 µg/mL [1]: 97%; pest or weed control at 40 µg/mL (Botrytis cinerea; [3]): 99%; pest or weed control at 40 µg/mL [2, 4]: 98%
Cc1nn(C)c(Nc2ccccc2Cl)c1-c1ccc(F)cc1Br [compound 272] | 100 | 99 | 100 | 100 | 
Cc1cccc(Cl)c1Nc1c(-c2ccc(F)cc2Br)c(C)nn1C [Compound 276, 4-(2-bromo-4-fluorophenyl)-N-(2-chloro-6-methylphenyl)-1,3-dimethyl-1H-pyrazol-5-amine] |  |  |  |  | pest or weed control (Septoria tritici; Zymoseptoria tritici): 100%; pest or weed control at 40 µg/mL [1]: 99%; pest or weed control at 40 µg/mL (Botrytis cinerea; [3]): 100%; pest or weed control at 40 µg/mL [2, 4]: 92%
